Results taken from patent US20130089504A1, “Compositions Comprising Enzyme-Cleavable Hydromorphone Prodrug” (priority 2010, published 2013).

Tests used:
[1] = target: T1, trypsin (Bos taurus, UniProt P00760); test: In vitro trypsin conversion of prodrug Compound PC-5 to hydromorphone; assay type: biochemical; details: no trypsin inhibitor
T1 construct: gene PRSS1
T1 sequence (P00760 24-246): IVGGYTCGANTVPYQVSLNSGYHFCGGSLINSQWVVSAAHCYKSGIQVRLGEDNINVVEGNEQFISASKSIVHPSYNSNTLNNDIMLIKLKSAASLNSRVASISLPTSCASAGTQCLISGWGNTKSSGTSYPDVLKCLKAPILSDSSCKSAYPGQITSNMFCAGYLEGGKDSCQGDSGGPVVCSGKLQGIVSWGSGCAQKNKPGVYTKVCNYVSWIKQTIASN
Method: Compound PC-5 was exposed to trypsin as described. […] A 5-minute 37° C. pre-incubation of the reaction mixture without prodrug was conducted and then the prodrug was added to initiate the incubation. The reaction was conducted at 37° C. for 24 hr.

[2] = Pharmacokinetics of hydromorphone prodrug following IV administration to rats; assay type: in vivo; details: male, Sprague Dawley; rat IV, PC-5 2 mg/kg (0.29 μmol/kg); plasma; read-out: PC-5 Cmax ± sd
[3] = In vivo tolerability of Compound PC-5 in rats (IV); details: rat IV
Method: Male naïve Sprague-Dawley rats, 4 per dose, were used in the study. Rats were weighed, and then placed under a heat lamp for 15-20 minutes to dilate the lateral tail veins. Before dosing, rats were placed in Broome restrainers and the drug was introduced into one of the tail veins using a syringe and needle. […] Blood samples were collected 5 minutes post-dose via the saphenous vein. The rats were observed up to 24 hours.

[4] = In vitro stability of Compound PC-5 to household chemicals and enzyme preparations; assay type: physicochemical; details: vodka, baking soda, WINDEX, vinegar at RT or 80° C.; GNC Super Digestive, tenderizer, subtilisn at RT; 1 or 24 hr
Method: Samples were incubated as described. Aliquots were removed at 1 hr and 24 hr and stabilized by transferring each to a solution of 50% or 100% phosphoric acid to achieve a final pH of less than or equal to pH 4. The stabilized aliquots were then diluted 4- to 6-fold with water, vortex-mixed and applied to HPLC.
The percentage of Compound PC-5 remaining after exposure is indicated by the solid black bars and percentage conversion of Compound PC-5 to hydromorphone is indicated by the lightly shaded bars with a black outline.

Compound: CCN(CCNC(=O)[C@H](CCCCN)NC(=O)CC(=O)O)C(=O)Oc1ccc2c3c1O[C@H]1C(=O)CCC4[C@@H](C2)N(C)CC[C@@]341 (stereo partly drawn) [Compound PC-5, [2-((S)-2-malonylamino-6-amino-hexanoylamino)-ethyl]-ethyl-carbamic acid hydromorphone ester]
- trypsin-mediated release of hydromorphone ([1]; in vitro): trypsin can mediate release hydromorphone
- Rate of HM formation, Average ± sd ([1]; 0.761 mM prodrug, 0.02 to 0.0228 mg/ml trypsin, Tris pH 8, 37° C.): 106 ± 2 umols/h/umol trypsin
- half-life at 0.761 mM ([1]; 0.761 mM prodrug, 0.02 to 0.0228 mg/ml trypsin, Tris pH 8, 37° C., read-out: Prodrug trypsin half-life, Average ± sd (converted)): 169 ± 13.8 min
- Cmax [2]: 3090 ± 360 ng/mL
- dose rats can tolerate [3]: 9.7 µmol/kg
- Clinical observations ([3]; 33 mg/kg ([…]), observed up to 24 hours): Normal
- conversion of Compound PC-5 to hydromorphone [4]: less than 10%
